From patent US7517874B2 (priority 2007, dated 2009)
pEC50: −log10 of the molar value. Read-outs that look alike come from different tables or passages of the source.

Columns and labels:
[1] = target: T1, rat CB2 receptor (rCB2) (Rattus norvegicus, UniProt Q9QZN9); assay: cell-based; type: cell-based; conditions: for +/− RCB2: agonist or inverse agonist at rCB2
T1 sequence (Q9QZN9 1-360): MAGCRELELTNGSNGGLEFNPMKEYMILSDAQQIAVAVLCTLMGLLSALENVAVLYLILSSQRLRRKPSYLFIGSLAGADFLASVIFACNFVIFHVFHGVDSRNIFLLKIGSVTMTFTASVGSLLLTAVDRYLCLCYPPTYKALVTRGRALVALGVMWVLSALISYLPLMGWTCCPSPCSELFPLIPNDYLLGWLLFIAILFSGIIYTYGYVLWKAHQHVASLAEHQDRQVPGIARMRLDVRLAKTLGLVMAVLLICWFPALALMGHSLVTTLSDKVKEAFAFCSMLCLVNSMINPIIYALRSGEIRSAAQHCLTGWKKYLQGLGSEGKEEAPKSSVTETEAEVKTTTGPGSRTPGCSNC
Method in brief: (§1)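 First, cells in IBMX-containing HEPES-buffered HBSS are raised to elevated cAMP with 2-8 μM NKH-477 for 30 min. Data are normalised to the forskolin and forskolin + 1 μM CP55,940 controls.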

[2] = target: human CB1 receptor (hCB1) (Homo sapiens, UniProt P21554); assay: cell-based; type: cell-based; conditions: for EC50: groups >100 nM-10 μM and >10 μM, cAMP, CHO-K1 hCB1, read-out: EC50 HCB1
Chain of human CB1 receptor (hCB1) (P21554 whole entry): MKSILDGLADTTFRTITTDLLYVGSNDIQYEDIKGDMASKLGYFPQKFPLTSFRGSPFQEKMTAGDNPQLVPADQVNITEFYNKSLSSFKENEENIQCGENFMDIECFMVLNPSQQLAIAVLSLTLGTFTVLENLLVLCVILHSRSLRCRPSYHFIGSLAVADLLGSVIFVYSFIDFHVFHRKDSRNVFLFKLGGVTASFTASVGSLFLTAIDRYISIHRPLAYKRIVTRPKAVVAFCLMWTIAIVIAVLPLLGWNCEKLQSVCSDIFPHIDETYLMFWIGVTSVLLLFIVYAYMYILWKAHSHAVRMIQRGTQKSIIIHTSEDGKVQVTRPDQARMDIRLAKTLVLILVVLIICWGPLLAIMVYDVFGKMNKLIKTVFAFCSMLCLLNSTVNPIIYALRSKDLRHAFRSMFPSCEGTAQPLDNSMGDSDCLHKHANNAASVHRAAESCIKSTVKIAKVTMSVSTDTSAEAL
Method in brief: as §1

O=C(NCC1CCOCC1)c1nc(-c2ccccc2)n2c1CN(C(=O)C1CCOC1)CC2 (stereo not shown) [Compound 135, 3-phenl-N-((tetrahydro-2H-pyran-4-yl)methyl)-7-(tetrahydrofuran-3-carbonyl)-5,6,7,8-tetrahydroimidazo[1,5-a]pyrazine-1-carboxamide]
EC50 ([1]; groups >100 nM-10 μM and >10 μM, cAMP, CHO-K1 rCB2, read-out: EC50 RCB2): > 10000 nM | EC50 [2]: > 10000 nM

O=C(NC1CCCCC1)c1nc(-c2ccccc2)n2c1CN(C(=O)C1CC1)CC2 [Compound 136, N-cyclohexyl-7-(cyclopropanecarbonyl)-3-phenyl-5,6,7,8-tetrahydroimidazo[1,5-a]pyrazine-1-carboxamide]
+/− RCB2 [1]: − | EC50 [2]: > 10000 nM

CC(C)(C)C(=O)N1CCn2c(-c3ccccc3)nc(C(=O)NC3CCCCC3)c2C1 [Compound 137, N-cyclohexyl-3-phenyl-7-pivaloyl-5,6,7,8-tetrahydroimidazo[1,5-a]pyrazine-1-carboxamide]
+/− RCB2 [1]: − | EC50 [2]: > 10000 nM

O=C(NC1CCCCC1)c1nc(-c2ccccc2)n2c1CN(C(=O)c1ccoc1)CC2 [Compound 138, N-cyclohexyl-7-(furan-3-carbonyl)-3-phenyl-5,6,7,8-tetrahydroimidazo[1,5-a]pyrazine-1-carboxamide]
+/− RCB2 [1]: − | EC50 [2]: > 10000 nM

C[C@@H](NC(=O)c1nc(-c2ccccc2)n2c1CN(C(=O)C1CCOC1)CC2)C1CCCCC1 (stereo partly drawn) [Compound 139, N-((R)-1-cyclohexylethyl)-3-phenyl-7-(tetrahydrofuran-3-carbonyl)-5,6,7,8-tetrahydroimidazo[1,5-a]pyrazine-1-carboxamide]
+/− RCB2 [1]: − | pEC50 [2]: < 5.00

C[C@@H](NC(=O)c1nc(-c2ccccc2)n2c1CN(CCO)CC2)C1CCCCC1 [Compound 140, (R)-N-(1-cyclohexylethyl)-7-(2-hydroxyethyl)-3-phenyl-5,6,7,8-tetrahydroimidazo[1,5-a]pyrazine-1-carboxamide]
+/− RCB2 [1]: − | pEC50 [2]: < 5.00

O=C(NC1CCCCC1)c1nc(-c2ccccc2)n2c1CN(CC1CCOC1)CC2 (stereo not shown) [Compound 141, N-cyclohexyl-3-phenyl-7-((tetrahydrofuran-3-yl)methyl)-5,6,7,8-tetrahydroimidazo[1,5-a]pyrazine-1-carboxamide]
+/− RCB2 [1]: − | pEC50 [2]: < 5.00

CC(C)CN1CCn2c(-c3ccccc3)nc(C(=O)NC3C4(C)CCC(C4)C3(C)C)c2C1 (stereo not shown) [Compound 142, 7-isobutyl-3-phenyl-N-(1,3,3-trimethylbicyclo[2.2.1]heptan-2-yl)-5,6,7,8-tetrahydroimidazo[1,5-a]pyrazine-1-carboxamide]
+/− RCB2 [1]: − | pEC50 [2]: < 5.00

CC12CCC(C1)C(C)(C)C2NC(=O)c1nc(-c2ccccc2)n2c1CN(CCO)CC2 (stereo not shown) [Compound 143, 7-(2-hydroxyethyl)-3-phenyl-N-(1,3,3-trimethylbicyclo[2.2.1]heptan-2-yl)-5,6,7,8-tetrahydroimidazo[1,5-a]pyrazine-1-carboxamide]
+/− RCB2 [1]: − | pEC50 [2]: < 5.00

CCN1CCn2c(-c3ccccc3)nc(C(=O)NC3C4(C)CCC(C4)C3(C)C)c2C1 (stereo not shown) [Compound 144, 7-ethyl-3-phenyl-N-(1,3,3-trimethylbicyclo[2.2.1]heptan-2-yl)-5,6,7,8-tetrahydroimidazo[1,5-a]pyrazine-1-carboxamide]
+/− RCB2 [1]: − | pEC50 [2]: < 5.00

CC(C)CN1CCn2c(-c3ccccc3)nc(C(=O)N[C@@H](C)c3ccccc3)c2C1 [Compound 145, (S)-7-isobutyl-3-phenyl-N-(1-phenylethyl)-5,6,7,8-tetrahydroimidazo[1,5-a]pyrazine-1-carboxamide]
+/− RCB2 [1]: − | pEC50 [2]: < 5.00

C[C@H](NC(=O)c1nc(-c2ccccc2)n2c1CN(CCO)CC2)c1ccccc1 [Compound 146, (S)-7-(2-hydroxyethyl)-3-phenyl-N-(1-phenylethyl)-5,6,7,8-tetrahydroimidazo[1,5-a]pyrazine-1-carboxamide]
+/− RCB2 [1]: − | pEC50 [2]: < 5.00

CCN1CCn2c(-c3ccccc3)nc(C(=O)N[C@@H](C)c3ccccc3)c2C1 [Compound 147, (S)-7-ethyl-3-phenyl-N-(1-phenylethyl)-5,6,7,8-tetrahydroimidazo[1,5-a]pyrazine-1-carboxamide]
+/− RCB2 [1]: − | pEC50 [2]: < 5.00

CNC(=O)[C@@H](NC(=O)c1nc(-c2ccccc2)n2c1CN(CC(C)C)CC2)C(C)(C)C [Compound 148, (S)-N-(3,3-dimethyl-1-(methylamino)-1-oxobutan-2-yl)-7-isobutyl-3-phenyl-5,6,7,8-tetrahydroimidazo[1,5-a]pyrazine-1-carboxamide]
+/− RCB2 [1]: − | pEC50 [2]: < 5.00

CCN1CCn2c(-c3ccccc3)nc(C(=O)N[C@H](C(=O)NC)C(C)(C)C)c2C1 [Compound 149, (S)-N-(3,3-dimethyl-1-(methyalmino)-1-oxobutan-2-yl)-7-ethyl-3-phenyl-5,6,7,8-tetrahydroimidazo[1,5-a]pyrazine-1-carboxamide]
+/− RCB2 [1]: − | pEC50 [2]: < 5.00

CC(C)CN1CCn2c(-c3ccccc3)nc(C(=O)Nc3ccccc3)c2C1 [Compound 150, 7-isobutyl-N,3-diphenyl-5,6,7,8-tetrahydroimidazo[1,5-a]pyrazine-1-carboxamide]
+/− RCB2 [1]: − | pEC50 [2]: < 5.00

O=C(Nc1ccccc1)c1nc(-c2ccccc2)n2c1CN(CCO)CC2 [Compound 151, 7-(2-hydroxyethyl)-N,3-diphenyl-5,6,7,8-tetrahydroimidazo[1,5-a]pyrazine-1-carboxamide]
+/− RCB2 [1]: − | EC50 [2]: > 10000 nM

CCN1CCn2c(-c3ccccc3)nc(C(=O)Nc3ccccc3)c2C1 [Compound 152, 7-ethyl-N,3-diphenyl-5,6,7,8-tetrahydroimidazo[1,5-a]pyrazine-1-carboxamide]
+/− RCB2 [1]: − | pEC50 [2]: < 5.00

CNC(=O)[C@@H](NC(=O)c1nc(-c2ccccc2)n2c1CN(CCO)CC2)C(C)(C)C [Compound 153, (S)-N-(3,3-dimethyl-1-(methylamino)-1-oxobutan-2-yl)-7-(2-hydroxyethyl)-3-phenyl-5,6,7,8-tetrahydroimidazo[1,5-a]pyrazine-1-carboxamide]
+/− RCB2 [1]: − | pEC50 [2]: < 5.00

CCCN1CCn2c(-c3ccccc3)nc(C(=O)Nc3ccccc3)c2C1 [Compound 154, N,3-diphenyl-7-propyl-5,6,7,8-tetrahydroimidazo[1,5-a]pyrazine-1-carboxamide]
+/− RCB2 [1]: − | pEC50 [2]: < 5.00

CC(C)CN1CCn2c(-c3ccccc3)nc(C(=O)NN3CCCCC3)c2C1 [Compound 155, 7-isobutyl-3-phenyl-N-(piperidin-1-yl)-5,6,7,8-tetrahydroimidazo[1,5-a]pyrazine-1-carboxamide]
+/− RCB2 [1]: − | pEC50 [2]: < 5.00

O=C(NN1CCCCC1)c1nc(-c2ccccc2)n2c1CN(CCO)CC2 [Compound 156, 7-(2-hydroxyethyl)-3-phenyl-N-(piperidin-1-yl)-5,6,7,8-tetrahydroimidazo[1,5-a]pyrazine-1-carboxamide]
+/− RCB2 [1]: − | EC50 [2]: > 10000 nM

CC(C)CCNC(=O)c1nc(-c2ccc(Cl)cc2)n2c1CN(CC(C)C)CC2 [Compound 157, 3-(4-chlorophenyl)-7-isobutyl-N-isopentyl-5,6,7,8-tetrahydroimidazo[1,5-a]pyrazine-1-carboxamide]
+/− RCB2 [1]: − | pEC50 [2]: < 5.00

CCN1CCn2c(-c3ccc(Cl)cc3)nc(C(=O)NCCC(C)C)c2C1 [Compound 158, 3-(4-chlorophenyl)-7-ethyl-N-isopentyl-5,6,7,8-tetrahydroimidazo[1,5-a]pyrazine-1-carboxamide]
+/− RCB2 [1]: − | pEC50 [2]: < 5.00

CC(C)CCNC(=O)c1nc(-c2ccc(Cl)cc2)n2c1CN(CCO)CC2 [Compound 159, 3-(4-chlorophenyl)-7-(2-hydroxyethyl)-N-isopentyl-5,6,7,8-tetrahydroimidazo[1,5-a]pyrazine-1-carboxamide]
+/− RCB2 [1]: − | EC50 [2]: > 10000 nM

CC(C)CN1CCn2c(-c3ccc(Cl)cc3)nc(C(=O)N[C@H](CO)C(C)(C)C)c2C1 [Compound 160, (S)-3-(4-chlorophenyl)-N-(1-hydroxy-3,3-dimethylbutan-2-yl)-7-isobutyl-5,6,7,8-tetrahydroimidazo[1,5-a]pyrazine-1-carboxamide]
+/− RCB2 [1]: − | pEC50 [2]: < 5.00

CCN1CCn2c(-c3ccc(Cl)cc3)nc(C(=O)N[C@H](CO)C(C)(C)C)c2C1 [Compound 161, (S)-3-(4-chlorophenyl)-7-ethyl-N-(1-hydroxy-3,3-dimethylbutan-2-yl)-5,6,7,8-tetrahydroimidazo[1,5-a]pyrazine-1-carboxamide]
+/− RCB2 [1]: − | pEC50 [2]: < 5.00

CC(C)(C)[C@@H](CO)NC(=O)c1nc(-c2ccc(Cl)cc2)n2c1CN(CCO)CC2 [Compound 162, (S)-3-(4-chlorophenyl)-N-(1-hydroxy-3,3-dimethylbutan-2-yl)-7-(2-hydroxyethyl)-5,6,7,8-tetrahydroimidazo[1,5-a]pyrazine-1-carboxamide]
+/− RCB2 [1]: − | pEC50 [2]: < 5.00

CC(C)CN1CCn2c(-c3ccccc3)nc(C(=O)N[C@H](C)C3CCCCC3)c2C1 [Compound 163, (R)-N-(1-cyclohexylethyl)-7-isobutyl-3-phenyl-5,6,7,8-tetrahydroimidazo[1,5-a]pyrazine-1-carboxamide]
+/− RCB2 [1]: − | pEC50 [2]: < 5.00
